Results from patent US7718804B2, “Quaternary nitrogen heterocyclic compounds for detecting aqueous monosaccharides in physiological fluids” (University of Maryland Biotechnology Institute, priority 2003, dated 2010).
Like-named read-outs stand apart in the source and are kept apart here.

Legend:
[1] = Fluoride sensing by fluorescence
Description: Moreover, because the quenching of fluorescence is not a selective process, any fluorophore quenched by chloride is also quenched by bromide and iodide to an even more substantial extent, allowing for the determination of bromide or iodide concentrations as well. Generally, fluorophores that are quenched by chloride are not quenched by fluoride, which is often attributed to the “heavy-atom effect” (Geddes, C. D., Meas. Sci. Technol., 12, R53 (2001); Lakowicz, J. R., Principles of Fluorescence Spectroscopy, 2nd ed., Kluwer/Academic Plenum Publishers, New York, 1997).

[2] = Spectral properties in water (absorption, emission, quantum yield, lifetime); format: physicochemical; conditions: for φf (quantum yield): relative to SPQ (φf=0.53 in water)
Experimental: (§1) All steady state fluorescence measurements were performed in a 4×1×1 cm fluorometric plastic cuvette, using a Varian Cary Eclipse fluorometer, and all absorption measurements were performed using a Varian UV/VIS 50 spectrophotometer.
Time-solved intensity decays were measured using reverse start-stop time-correlated single-photon timing (TCSPC) with a Becker and Hickl Gmbh 630 SPC PC card and unamplified MCP-PMT. Vertically polarized excitation at ˜372 nm was obtained using a pulsed LED source (1 MHz repetition rate) and a dichroic sheet polarizer. The instrumental response function was ˜1.1 ns fwhm. The emission was collected at the magic angle (54.7°) using a long pass filter (Edmund Scientific) which cut-off the excitation wavelengths.
The intensity decays were analyzed in terms of the multi-exponential model:
[formula] where αi are the amplitudes and τi are the decay times, Σαi=1.0. The fractional contribution of each component to the steady-state intensity is given by:
The mean lifetime of the excited state is given by:
The values of αi and τi were determined by non-linear least squares impulse reconvolution with a goodness-of-fit χ^2R criterion.
A representative absorption and emission spectra for o-BMQBA in water is shown in FIG. 3B, which corresponds to all three isomers and BMQ. BMQBA has a strong absorption band at ˜320 nm, which can be assigned to n→π* transitions, and an excitation band at ˜427 nm, and as such, has a large Stokes shift of about 100 nm, which is ideal for fluorescence sensing. The quantum yield values of the BMQBA compounds in water relative to N-(3-sulfopropyl)-6-methoxyquinolinium (SPQ) (φf=0.53 in water) are shown in Table 1. The low quantum yields and relatively short lifetime of the BMQBA and BMQ molecules can be attributed to a photo-induced electron transfer, whereby the phenyl ring acts as the donor and the quinolinium moiety acts as the acceptor.
A representative absorption and emission spectra for o-BMOQBA in water is shown in FIG. 3A, which corresponds to all three isomers and BMOQ. BMOQBA has a strong absorption band at ˜345 nm, which can be assigned to n→π* transitions, and an excitation band at ˜450 nm, and as such, has a large Stokes shift of about 100 nm, which is ideal for fluorescence sensing. The quantum yield values of the BMOQBA compounds in water relative to N-(3-sulfopropyl)-6-methoxyquinolinium (SPQ) (φf=0.53 in water) are shown in Table 2. […] We can only speculate as to the quantum yield differences between the m-BMOQBA and p-BMOQBA compounds, which may be attributed to through-bond and through-space mechanisms.

[3] = Fluorescence intensity response to fructose in solution
Experimental: as §1
The emission spectra of o-BMQBA in the presence of varying concentrations of fructose and glucose are shown in FIG. 4A and FIG. 4B, respectively. It can be seen that the fluorescence intensity of o-BMQBA in pH 7.5 phosphate buffer is inversely proportional to the glucose and fructose concentrations. […] A plot of the intensity ratio, I′/I, at λ=427 nm, where I′ and I represent the fluorescence intensities in the absence and presence of sugar, respectively, is shown in FIG. 4C. […] It is noted that the concentration of fructose in blood is ˜10 times lower than glucose, a relationship which is also thought to occur in tears (N. Dicesare, et. al., J. Bio. Med. Opt., 7(4), 538-545 (2002)).
The intensity ratio for o-BMQBA in buffered media (pH 5-8) at various glucose concentrations is shown in FIG. 8A, wherein I′ corresponds to the intensity in the absence of glucose and I corresponds to the intensity at the specified glucose concentration. In addition, the intensity ratio for o-BMQBA in buffered media (pH 5-8) at low glucose concentrations, typical of those found in tears, is shown in FIG. 8B. Correspondingly, the intensity ratio for o-BMQBA in buffered media (pH 5-8) at various fructose concentrations is shown in FIGS. 9A and 9B.
Because physiological fluids contain chloride ions, which are well known quenchers of quinolinium fluorescence (Geddes, C. D., Meas. Sci. Technol., 12(9), R53-R88 (2001); Geddes, C. D., et al., J. Heterocyclic Chem., 36(4), 949-951 (1999); Geddes, C. D., et al., Anal. Biochem., 293(1), 60-66 (2001)), the fluorescence intensity and intensity ratios of o-BMQBA in pH 7.5 buffer having 100 mM NaCl with varying quantities of fructose or glucose was measured and shown in FIGS. 10 and 11, respectively, where I′ corresponds to the intensity in the absence of fructose and I corresponds to the intensity at the specified fructose concentration. It can be seen that although chloride quenched the intensity of the emission in the presence of fructose, the intensity ratio change for fructose is still significant, amounting to a 4-fold decrease in fluorescence intensity at 60 mM fructose (see FIG. 10B). The quenching effect was less significant at lower concentrations of fructose (see FIG. 10C) and for glucose concentrations, both high and low (see FIGS. 11B and 11C). This minimal quenching effect for BMQBA is supported by the calculated Stern-Volmer constants, KSV, for the BMQBA compounds in water, which were determined to be 44.0 M^−1, 20.0 M^−1, 17.0 M^−1 and 35.0 M^−1 for o-BMQBA, m-BMQBA, p-BMQBA and BMQ, respectively. These are small quenching constants that are readily accounted for using simple corrections in the fluorescence signal, as readily determined by one skilled in the art of fluorescence.
(§2) The intensity ratio at λ=450 nm for o-BMOQBA in buffered media (pH 5-8) at various glucose concentrations is shown in FIG. 16A, wherein I′ corresponds to the intensity in the absence of glucose and I corresponds to the intensity at the specified glucose concentration. In addition, the intensity ratio for o-BMOQBA in buffered media (pH 5-8) at low glucose concentrations, typical of those found in tears, is shown in FIG. 16B. Correspondingly, the intensity ratio for o-BMOQBA in buffered media (pH 5-8) at various fructose concentrations is shown in FIGS. 17A and 17B.
Each BAF was tested to determine the usefulness of these BAFs with regard to tear glucose sensing in a contact lens. Towards that end, both solution-based and doped contact lens-based measurements, the methods of which are described above, were performed and subsequently compared. […]

[4] = Fluorescence intensity response to glucose in solution; conditions: for decrease in fluorescence intensity: 0.60 mM glucose, pH 6 to 7 range, buffered solution
Experimental: All steady state fluorescence measurements were performed in a 4×1×1 cm fluorometric plastic cuvette, using a Varian Cary Eclipse fluorometer, and all absorption measurements were performed using a Varian UV/VIS 50 spectrophotometer. […]
The emission spectra of o-BMOQBA in the presence of varying concentrations of glucose and fructose are shown in FIG. 12A and FIG. 12B, respectively. It can be seen that the fluorescence intensity of o-BMOQBA in pH 7.5 phosphate buffer is inversely proportional to the glucose and fructose concentrations. […] A plot of the intensity ratio, I′/I, at λ=450 nm, where I′ and I represent the fluorescence intensities in the absence and presence of sugar, respectively, is shown in FIG. 12C. […] Referring to FIG. 12C, there is a 2.8-fold change in intensity by the addition of 60 mM sugar.
as §2
Each BAF was tested to determine the usefulness of these BAFs with regard to tear glucose sensing in a contact lens. Towards that end, both solution-based and doped contact lens-based measurements, the methods of which are described above, were performed and subsequently compared.

[5] = in water; cited from earlier work
[6] = pKa from normalized fluorescence intensity versus pH, with and without 100 mM sugar; format: physicochemical
Description: A normalized plot of intensity at 427 nm as a function of pH is shown in FIG. 6, wherein I is the emission intensity at the specified pH and Io is the initial emission intensity at pH 3.0. Though not to be bound by theory, it is likely that the change in fluorescence intensity relative to pH value is attributed to the change in hybridization of the boron atom with increasing pH. At low pH values, the boronic acid group is an electron-deficient Lewis acid that is sp^2-hybridized and thus is trigonal planar. As the pH increases, the anionic form of the boronic acid begins to form, which corresponds to a more electron rich sp^3-hybridized boron atom and an […] shape. The change in the geometry of the boron atom induces the fluorescence spectral changes of the molecular sensing moieties.
Based on previously reported pKa values for boronic acid compounds, these pKa values are the lowest reported for a phenyl boronic acid derivative. The quaternary nitrogen of the quinolinium moiety not only reduces the pKa of the compound, but also stabilizes the anionic boronate diester complex (represented by D in FIG. 1), which may explain the affinity of sugar for these novel compounds. Importantly, the large decrease in the pKa of the boronic acid-sugar complex relative to the uncomplexed boronic acid, allows for the quantitative detection of monosaccharides at or below physiological pH because substantial optical changes are observed.
A normalized plot of intensity at 450 nm as a function of pH is shown in FIG. 14, wherein normalized intensity is the emission intensity at the specified pH, I, relative to the initial emission intensity at pH 3.0, Io. As discussed with reference to o-BMQBA, the change in the geometry of the boron atom may explain the fluorescence spectral changes of the molecular sensing moieties.
Comparing the pKa values of previously reported boronic acid compounds relative to the novel BMOQBA isomers, these pKa values are relatively low. As discussed with reference to o-BMQBA, the lower pKa values can be attributed to the increased Lewis acidity of the boronate diester complex (represented by D in FIG. 1). Importantly, the large decrease in the pKa of the boronic acid-sugar complex relative to the uncomplexed boronic acid, allows for the quantitative detection of monosaccharides at or below physiological pH because substantial optical changes are observed.

[7] = Dissociation constant from fluorescence titration with fructose; format: binding; conditions: pH 7.5 phosphate buffer
Description: (§3) Stability (KS (mM^−1) and dissociation (KD) constants were obtained by fitting the titration curves with sugar to the relation:
(§4) [formula] where Imin and Imax are initial (no sugar) and final (plateau) fluorescence intensities of the titration curves and KD=(1/KS).

[8] = Dissociation constant from fluorescence titration with glucose; format: binding; conditions: pH 7.5 phosphate buffer
Description: as §3, §4

[9] = buffer with 100 mM fructose, 100 mM fructose, read-out: pKa (buffer + fructose)
[10] = buffer with 100 mM glucose, 100 mM glucose, read-out: pKa (buffer + glucose)
[11] = buffer without sugar, absence of sugar, read-out: pKa (buffer)

SMILES: Nc1ccc2c(ccc[n+]2Cc2ccccc2B(O)O)c1.[Br-] [BAQBA, N-(2-boronobenzyl)-6-aminoquinolinium bromide]
- detectable fluoride concentration [1]: below 50 mM

SMILES: COc1ccc2c(ccc[n+]2Cc2ccccc2)c1 [BMOQ, N-benzyl-6-methoxyquinolinium bromide]
- λem (max) [2]: 453 nm
- τf (mean lifetime) [2]: 27.3 ns
- φf (quantum yield) [2]: 0.54

SMILES: Cc1ccc2c(ccc[n+]2Cc2ccccc2)c1 [BMQ, N-benzyl-6-methylquinolinium bromide]
- λabs (max) [2]: 322 nm
- λem (max) [2]: 427 nm
- τf (mean lifetime) [2]: 2.59 ns
- φf (quantum yield) [2]: 0.045

SMILES: N#Cc1ccc(/C=C/c2ccc(B(O)O)cc2)cc1 [CSTBA, 4′-cyanostilbene-4-boronic acid]
- red shift of emission spectra ([3]; increasing fructose, pH 8.0 buffer/methanol (2:1)): about 25 nm

SMILES: CN(C)c1ccc(/C=C/C=C/C(=O)c2ccc(B(O)O)cc2)cc1 [Chalc 2, 5-[4′-(dimethylamino)phenyl]-1-(4′-boronophenyl)-pent-2,4-dien-1-one]
- increase in fluorescence emission ([3]; 100 mM fructose, pH 8.0, solution): 3 fold

SMILES: CN(C)c1ccc(/C=C/c2ccc(B(O)O)cc2)cc1 [DSTBA, 4′-dimethylaminostilbene-4-boronic acid]
- ratiometric change in intensity ([4]; 60 mM glucose, pH 8.0 buffer/methanol (2:1)): 2 fold
- ratiometric change in intensity ([3]; 60 mM fructose, pH 8.0 buffer/methanol (2:1)): 4.5 fold
- blue shift of emission spectra ([3]; fructose 0 mM→100 mM, pH 8.0 buffer/methanol (2:1)): about 30 nm

SMILES: COc1ccc2c(ccc[n+]2CCCS(=O)(=O)O)c1 [SPQ, N-(3-sulfopropyl)-6-methoxyquinolinium]
- φf (quantum yield) of reference standard [5]: 0.53

SMILES: COc1ccc2c(ccc[n+]2Cc2ccccc2B(O)O)c1.[Br-] [o-BMOQBA, N-(2-boronobenzyl)-6-methoxyquinolinium bromide]
- decrease in fluorescence intensity [4]: 5-10%
- change in intensity (I′/I at 450 nm) ([4]; addition of 60 mM sugar, pH 7.5 phosphate buffer (FIG. 12C)): 2.8 fold
- pKa [6, 9]: 4.8
- pKa [6, 10]: 6.62
- pKa [6, 11]: 7.9
- λem (max) [2]: 450 nm
- τf (mean lifetime) [2]: 26.7 ns
- φf (quantum yield) [2]: 0.46
- Kd [7]: 0.65 mM
- decrease in fluorescence intensity ([3]; 0.50 mM fructose, pH 6 to 7 range, buffered solution): 10-40%
- Kd [8]: 49.5 mM

SMILES: Cc1ccc2c(ccc[n+]2Cc2ccccc2B(O)O)c1.[Br-] [o-BMQBA, N-(2-boronobenzyl)-6-methylquinolinium bromide]
- decrease in fluorescence intensity [4]: ~10%
- pKa [6, 9]: 5.08
- pKa [6, 10]: 6.18
- pKa [6, 11]: 6.92
- λabs (max) [2]: 319 nm
- λem (max) [2]: 427 nm
- τf (mean lifetime) [2]: 4.01 ns
- φf (quantum yield) [2]: 0.043
- Kd [7]: 4.7 mM
- decrease in fluorescence intensity ([3]; 60 mM fructose, pH 7.5 buffer with 100 mM NaCl): 4 fold
- Kd [8]: 100 mM
